What was measured:
[1] = tested on: Human forskin fibroblasts (cell line BJ); test: in vitro cytotoxic activity, MTT assay; type: cell-based; conditions: 72 hours; BJ fibroblasts at middle passage
Experimental: In vitro cytotoxic activity of several of the 6,9-disubstituted purine derivatives of this invention against human diploid fibroblasts was determined by standard MTT assay optimized for 96-well plates. The assay is based on spectrofotometric measurement of the product of metabolic conversion of MTT by mitochondria of living cells.
Human forskin fibroblasts (cell line BJ) at middle passage were maintained in 75 cm^2 plastic tissue culture flasks and cultured in cell culture medium (DMEM with 5 g/l glucose, 2 mM glutamine, 100 U/ml penicillin, 100 μg/ml streptomycin, 10% fetal calf serum, and sodium bicarbonate).
About 5,000 cells were seeded per well of the 96-well plate. After 24 hours the cell culture medium was replaced with the cell culture medium containing a test compound. The test compounds were evaluated at six 2-fold dilutions. The highest concentration used in the present study was usually 200 μM. In the case of compounds with limited solubility in the culture medium the highest concentration was adjusted. Every test compound was examined in five replicates. Cells with the test compounds were incubated for 72 hours at 37° C. in 5% CO2 atmosphere and 100% humidity. At the end of the incubation period, the culture medium was replaced with the cell culture medium containing MTT (0.5 mg/ml) and cells were incubated for another 3 hours. The formazan formed was solubilized by DMSO and absorbance at 570 nm was measured. Ability of the tested compounds to inhibit MTT reducing activity of the cells was calculated as IC=(Acompound exposed well−mean Ablank)/(mean Acontrol well−meanAblank)×100%. IC10, the drug concentration causing 10% decrease in MTT reducing activity, was calculated from the obtained dose response curves.

[2] = tested on: Rat C6 glioma (ATCC No. CCL107); test: anti-inflammatory activity: isoproterenol-induced intracellular cAMP synthesis; type: cell-based; conditions: cAMP after 30 min with (−)-isoproterenol
Experimental: Anti-inflammatory activity of several of the 6,9-disubstituted purine derivatives of this invention was determined; kinetin was also evaluated as a control. Rat C6 glioma (ATCC No. CCL107) was cultivated in monolayer in serum-free chemically defined medium containing Ham's F10/minimal essential medium (1:1 v/v), 2 mM L-glutamine, 1% (v/v) minimal essential medium vitamins (100×), 1% (v/v) minimal essential medium nonessential amino acids (100×), 100 U/ml penicillin, […], and 30 nM sodium selenite. Incubation was performed at 37° C. in a humidified atmosphere. The assays were performed in the logaritmic growth phase at a density of 2.5×10^5 cells/cm^2. Intracellular cAMP synthesis was induced by addition of 5 mM (−)-isoproterenol; various amounts of test compounds were added at the same time as the (−)-isoproterenol. After 30 min incubation at 37° C., the medium was removed and the cellular amount of cAMP was determined using the cAMP-enzyme immunoassay kit from Amersham. The I50 value was determined from a dose-response curve in duplicate.

[3] = tested on: chorioallantoic membrane of White Leghorn eggs; test: Chorioallantoic Membrane Vascular Assay (ocular irritation)
Experimental: The chorioallantoic membrane of White Leghorn eggs, incubated for 14 days, were dosed with 40 μl of the test compound (and three lower concentrations in distilled water) and then further incubated for about 30 minutes at which time the chorioallantoic membrane was examined for vascular hemorrhage, capillary injection, and/or the presence of ghost vessels.

[4] = tested on: Chinese hamster ovary (CHO) cells; test: In Vitro Chromosome Aberration Screening Assay; type: cell-based; conditions: 0.272 to 272 μg/ml; absence and presence of S9
Experimental: 6-Furfurylamino-9-(2-tetrahydropyranyl)purine was tested in the chromosome aberration screening assay using Chinese hamster ovary (CHO) cells in both the absence and presence of an Acroclor-induced S9 activation system to evaluate its clastogenic potential. DMSO was used as the solvent and the dose rate ranged from 0.272 to 272 μg/ml.

[5] = tested on: normal, human-derived epidermal keratinocytes (NHEK); test: Epiderm MTT Viablity Assay; type: cell-based
Experimental: Using MatTek Corporation's EpiDerm™ System (consisting of normal, human-derived epidermal keratinocytes (NHEK) which have been cultured to form a multilayered, highly differentiated model of the human epidermis), it was determined that 6-furfurylamino-9-(2-tetrahydropyranyl)purine would be expected to be classified as non-irritating.

Compound: c1coc(CNc2ncnc3c2ncn3C2CCCCO2)c1 (stereo not shown) [6-furfurylamino-9-(2-tetrahydropyranyl)purine]
- IC10 (concentration causing 10% decrease in MTT reducing activity) [1]: >200 µM
- IC50 ([2]; Rattus norvegicus, C6 glioma, 0.5 h, read-out: Anti-inflammatory Activity I50): 13 µM
- Anti-inflammatory Activity Effect [2]: Inhibition
- ocular irritation classification [3]: non-irritant
- RC50 (calculated concentration producing a positive reaction in 50% of treated eggs) ([3]; about 30 minutes, <1% irritant, >3% non-irritant): 105%
- induction of structural and numerical chromosome aberrations [4]: negative for the induction of structural and numerical chromosome aberrations
- irritation classification, EpiDerm System [5]: non-irritating

— patent US20130072505A1, “6,9-Disubstituted Purine Derivatives and Their Use for Treating Skin” (priority 2006, published 2013)
